In patent US10457655B2, “Compounds and compositions for inhibition of FASN” (FORMA Therapeutics, Inc., priority 2013, dated 2019):
Read-outs that look alike come from different tables or passages of the source.

What was measured:
FASN enzyme = FASN enzyme (Homo sapiens, UniProt P49327); test: Enzymatic Assay for FASN Inhibitors; assay type: biochemical
Method in brief: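 40 nM FASN preincubated with compound 60 min at 25° C in HEPES pH 7.3 buffer with 0.04% Triton X-100. Then 20 μM acetyl-CoA, 60 μM malonyl-CoA and 100 μM NADPH added for 90 min, quenched with CPM thiol probe; fluorescence 360/530 nm, IC50 by four-parameter fit.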

PC3 cells = test: Cell Proliferation Assays for FASN Inhibitors (PC3 cells, MTT); assay type: cell-based; conditions: Homo sapiens, PC-3, 96 h
Procedure: The effects of the FASN inhibitors on cultured cancer cell proliferation were studies with cell proliferation assays. PC3 cells were maintained at standard culture media (F12K media supplemented with 10% fetal bovine serum, 1×MEM nonessential amino acid and 1× penicillin/streptomycin). 2000-3000 cells/100 μL/well was seeded in a 96-well clear culture plate. The cells were incubated overnight in 5% CO2 at 37° C. for attachment. Cell media were removed and replaced with F12K media containing 10% lipid reduced serum and compound. The final DMSO concentration is 0.1%. The cells were maintained in 5% CO2 at 37° C. for 4 days. The viability of cells was determined by MTT assays. The IC50 of a given compound was calculated by fitting the dose response curve with a four parameter logistic equation.

[1] = read-out: IC50 (uM) < 0.5, 10% lipid reduced serum, 4 days, Table 3-1
[2] = read-out: IC50 (uM) ≥ 0.5, 10% lipid reduced serum, 4 days, Table 3-2

Sequence of FASN enzyme (P49327 whole entry): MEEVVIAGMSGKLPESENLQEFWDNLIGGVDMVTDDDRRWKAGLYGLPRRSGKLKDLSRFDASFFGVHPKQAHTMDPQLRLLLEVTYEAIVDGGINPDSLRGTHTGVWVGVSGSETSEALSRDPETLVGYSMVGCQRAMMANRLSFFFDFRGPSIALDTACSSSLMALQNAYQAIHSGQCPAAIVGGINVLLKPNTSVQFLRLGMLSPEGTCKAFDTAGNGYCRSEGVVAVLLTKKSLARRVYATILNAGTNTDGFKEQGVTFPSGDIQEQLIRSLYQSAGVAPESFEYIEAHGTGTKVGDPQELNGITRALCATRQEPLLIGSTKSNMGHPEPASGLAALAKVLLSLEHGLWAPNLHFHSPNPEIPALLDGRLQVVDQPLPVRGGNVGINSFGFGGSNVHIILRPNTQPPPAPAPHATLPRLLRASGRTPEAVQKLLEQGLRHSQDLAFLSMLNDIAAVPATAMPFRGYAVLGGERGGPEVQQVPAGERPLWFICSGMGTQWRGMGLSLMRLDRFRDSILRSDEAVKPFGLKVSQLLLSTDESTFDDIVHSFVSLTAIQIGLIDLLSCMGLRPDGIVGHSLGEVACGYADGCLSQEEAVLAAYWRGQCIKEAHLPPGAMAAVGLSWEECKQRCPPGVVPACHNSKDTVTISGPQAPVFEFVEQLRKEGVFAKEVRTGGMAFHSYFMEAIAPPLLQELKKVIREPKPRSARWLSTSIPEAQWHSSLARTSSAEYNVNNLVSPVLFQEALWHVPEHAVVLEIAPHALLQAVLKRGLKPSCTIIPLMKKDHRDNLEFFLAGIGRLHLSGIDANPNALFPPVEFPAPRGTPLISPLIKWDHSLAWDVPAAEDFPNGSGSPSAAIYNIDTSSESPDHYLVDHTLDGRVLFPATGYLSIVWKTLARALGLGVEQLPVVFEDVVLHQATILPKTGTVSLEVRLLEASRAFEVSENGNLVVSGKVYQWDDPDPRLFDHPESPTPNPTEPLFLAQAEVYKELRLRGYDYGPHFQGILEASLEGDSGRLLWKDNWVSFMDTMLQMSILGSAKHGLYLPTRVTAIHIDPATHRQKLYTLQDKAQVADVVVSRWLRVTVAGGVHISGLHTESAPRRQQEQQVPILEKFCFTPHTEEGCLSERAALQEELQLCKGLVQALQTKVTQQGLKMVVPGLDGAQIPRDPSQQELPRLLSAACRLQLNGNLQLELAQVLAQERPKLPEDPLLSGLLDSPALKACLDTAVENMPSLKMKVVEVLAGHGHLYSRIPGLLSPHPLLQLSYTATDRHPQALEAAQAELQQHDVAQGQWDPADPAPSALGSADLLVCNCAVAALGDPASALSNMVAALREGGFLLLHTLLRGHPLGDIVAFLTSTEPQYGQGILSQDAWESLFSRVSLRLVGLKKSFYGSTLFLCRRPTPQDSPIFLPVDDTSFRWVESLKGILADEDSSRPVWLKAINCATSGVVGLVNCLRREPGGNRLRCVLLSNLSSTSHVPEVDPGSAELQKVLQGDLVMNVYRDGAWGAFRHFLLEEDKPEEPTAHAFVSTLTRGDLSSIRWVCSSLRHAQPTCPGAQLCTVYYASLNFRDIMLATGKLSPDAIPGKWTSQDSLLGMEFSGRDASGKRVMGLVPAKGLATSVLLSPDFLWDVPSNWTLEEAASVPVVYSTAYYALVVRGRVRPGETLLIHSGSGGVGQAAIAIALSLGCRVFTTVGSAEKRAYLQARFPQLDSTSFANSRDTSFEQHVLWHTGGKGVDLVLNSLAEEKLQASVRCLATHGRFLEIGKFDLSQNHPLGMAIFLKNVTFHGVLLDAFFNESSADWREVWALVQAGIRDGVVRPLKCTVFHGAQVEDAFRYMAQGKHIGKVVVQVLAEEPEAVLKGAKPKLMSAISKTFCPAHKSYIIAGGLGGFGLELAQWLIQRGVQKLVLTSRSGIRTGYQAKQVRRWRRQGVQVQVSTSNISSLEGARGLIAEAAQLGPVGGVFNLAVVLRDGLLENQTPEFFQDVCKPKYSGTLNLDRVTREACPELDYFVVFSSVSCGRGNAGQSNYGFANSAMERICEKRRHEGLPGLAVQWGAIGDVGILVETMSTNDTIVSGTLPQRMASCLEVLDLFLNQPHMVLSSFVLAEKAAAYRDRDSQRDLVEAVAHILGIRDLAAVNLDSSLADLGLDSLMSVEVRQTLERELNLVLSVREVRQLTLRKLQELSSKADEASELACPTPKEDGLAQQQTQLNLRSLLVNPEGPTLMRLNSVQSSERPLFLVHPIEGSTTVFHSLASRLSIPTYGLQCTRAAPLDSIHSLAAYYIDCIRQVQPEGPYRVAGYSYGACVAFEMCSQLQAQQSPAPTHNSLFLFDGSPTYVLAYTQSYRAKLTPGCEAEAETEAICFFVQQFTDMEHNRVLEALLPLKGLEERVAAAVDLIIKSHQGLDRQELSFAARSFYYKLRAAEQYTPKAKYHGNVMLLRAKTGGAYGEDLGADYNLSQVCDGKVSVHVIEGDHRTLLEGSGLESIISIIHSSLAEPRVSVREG

| Structure (SMILES) | IC50 (FASN enzyme) [nM] | IC50 (PC3 cells; [1]) [µM] | IC50 (PC3 cells; [2]) [µM] | IC50 (FASN enzyme; FASN enzymatic assay, Table 2-2) [nM] |
| --- | --- | --- | --- | --- |
| O=C(c1ccc(-c2cnc3ccccc3c2)cc1Cl)N1CCN(C(=O)C2(O)CC2)CC1 | < 500 | < 0.5 |  |  |
| Cn1ccc2cc(-c3ccc(C(=O)N4CCN(C(=O)C5(O)CC5)CC4)c(Cl)c3)ccc21 [1-[(4-{[2-chloro-4-(1-methyl-1H-indol-5-yl)phenyl]carbonyl}piperazin-1-yl)carbonyl]cyclopropan-1-ol] | < 500 | < 0.5 |  |  |
| O=C(c1ccc(-c2cnc3ccccc3c2)cc1)N1CCN(C(=O)C2CCO2)CC1 (centres unmarked) [3-[4-({4-[(oxetan-2-yl)carbonyl]piperazin-1-yl}carbonyl)phenyl]quinoline] | < 500 |  | ≥ 0.5 |  |
| Cn1ccc2cc(-c3ccc(C(=O)N4CCN(C(=O)C5(O)CC5)CC4)cc3Cl)ccc21 [1-[(4-{[3-chloro-4-(1-methyl-1H-indol-5-yl)phenyl]carbonyl}piperazin-1-yl)carbonyl]cyclopropan-1-ol] | < 500 | < 0.5 |  |  |
| COc1nc2ccccc2cc1-c1ccc(C(=O)N2CCN(C(=O)C3(O)CC3)CC2)c(F)c1 [1-[(4-{[2-fluoro-4-(2-methoxyquinolin-3-yl)phenyl]carbonyl}piperazin-1-yl)carbonyl]cyclopropan-1-ol] | < 500 | < 0.5 |  |  |
| O=C(c1ccc(-c2ccc3ccccc3n2)c(F)c1F)N1CCN(C(=O)C2(O)CC2)CC1 [1-[(4-{[2,3-difluoro-4-(quinolin-2-yl)phenyl]carbonyl}piperazin-1-yl)carbonyl]cyclopropan-1-ol] | < 500 | < 0.5 |  |  |
| Cc1cc(C(=O)N2CCN(C(=O)C3(O)CC3)CC2)ccc1-c1ccc2c(ccn2C)c1 [1-[(4-{[3-methyl-4-(1-methyl-1H-indol-5-yl)phenyl]carbonyl}piperazin-1-yl)carbonyl]cyclopropan-1-ol] | < 500 | < 0.5 |  |  |
| CC(C)n1ccc2cc(-c3ccc(C(=O)N4CCN(C(=O)C5(O)CC5)CC4)cc3Cl)ccc21 [1-{[4-({3-chloro-4-[1-(propan-2-yl)-1H-indol-5-yl]phenyl}carbonyl)piperazin-1-yl]carbonyl}cyclopropan-1-ol] | < 500 |  | ≥ 0.5 |  |
| O=C(c1ccc2nc(-c3ccccc3)sc2c1)N1CCN(C(=O)C2(O)CC2)CC1 [1-({4-[(2-phenyl-1,3-benzothiazol-6-yl)carbonyl]piperazin-1-yl}carbonyl)cyclopropan-1-ol] | < 500 | < 0.5 |  |  |
| O=C(c1ccc(-c2cn3ccccc3n2)cc1Cl)N1CCN(C(=O)C2(O)CC2)CC1 [1-({4-[(2-chloro-4-{imidazo[1,2-a]pyridin-2-yl}phenyl)carbonyl]piperazin-1-yl}carbonyl)cyclopropan-1-ol] | < 500 | < 0.5 |  |  |
| N#Cc1c[nH]c2ccc(-c3ccc(C(=O)N4CCN(C(=O)C5(O)CC5)CC4)cc3Cl)cc12 | < 500 | < 0.5 |  |  |
| O=C(c1ccc(-c2nc3ccc(F)cc3o2)cc1)N1CCN(C(=O)C2(O)CC2)CC1 [1-[(4-{[4-(6-fluoro-1,3-benzoxazol-2-yl)phenyl]carbonyl}piperazin-1-yl)carbonyl]cyclopropan-1-ol] | < 500 | < 0.5 |  |  |
| Cc1cc(C(=O)N2CCN(C(=O)C3(O)CC3)CC2)ccc1-c1ccc2ncccc2c1 [1-[(4-{[3-methyl-4-(quinolin-6-yl)phenyl]carbonyl}piperazin-1-yl)carbonyl]cyclopropan-1-ol] | < 500 | < 0.5 |  |  |
| N#Cc1ccc2nc(-c3ccc(C(=O)N4CCN(C(=O)C5(O)CC5)CC4)cc3)oc2c1 [2-[4-({4-[(1-hydroxycyclopropyl)carbonyl]piperazin-1-yl}carbonyl)phenyl]-1,3-benzoxazole-6-carbonitrile] | < 500 | < 0.5 |  |  |
| O=C(c1ccc(-c2nc3cc(F)ccc3o2)cc1)N1CCN(C(=O)C2(O)CC2)CC1 [1-[(4-{[4-(5-fluoro-1,3-benzoxazol-2-yl)phenyl]carbonyl}piperazin-1-yl)carbonyl]cyclopropan-1-ol] | < 500 | < 0.5 |  |  |

Next, values leading:

| IC50 (FASN enzyme) [nM] | IC50 (PC3 cells; [1]) [µM] | IC50 (PC3 cells; [2]) [µM] | IC50 (FASN enzyme; FASN enzymatic assay, Table 2-2) [nM] | Structure (SMILES) |
| --- | --- | --- | --- | --- |
| < 500 | < 0.5 |  |  | O=C(c1ccc(-c2cc(Cl)ccc2F)cc1)N1CCN(C(=O)C2(O)CC2)CC1 [1-[(4-{[4-(5-chloro-2-fluorophenyl)phenyl]carbonyl}piperazin-1-yl)carbonyl]cyclopropan-1-ol] |
| < 500 | < 0.5 |  |  | COc1ccc2cc(-c3ccc(C(=O)N4CCN(C(=O)C5(O)CC5)CC4)cc3)ccc2n1 [1-[(4-{[4-(2-methoxyquinolin-6-yl)phenyl]carbonyl}piperazin-1-yl)carbonyl]cyclopropan-1-ol] |
| < 500 | < 0.5 |  |  | O=C(c1ccc(-c2nc3ccccc3s2)cc1)N1CCN(C(=O)C2(O)CC2)CC1 [1-[(4-{[4-(1,3-benzothiazol-2-yl)phenyl]carbonyl}piperazin-1-yl)carbonyl]cyclopropan-1-ol] |
| < 500 | < 0.5 |  |  | CC(C)n1cc(C#N)c2cc(-c3ccc(C(=O)N4CCN(C(=O)C5(O)CC5)CC4)cc3)ccc21 |
| < 500 | < 0.5 |  |  | Cn1cnc2cc(-c3ccc(C(=O)N4CCN(C(=O)C5(O)CC5)CC4)cc3)ccc21 [1-[(4-{[4-(1-methyl-1H-1,3-benzodiazol-5-yl)phenyl]carbonyl}piperazin-1-yl)carbonyl]cyclopropan-1-ol] |
| < 500 | < 0.5 |  |  | COc1c(Cl)cccc1-c1ccc(C(=O)N2CCN(C(=O)C3(O)CC3)CC2)cc1 [1-[(4-{[4-(3-chloro-2-methoxyphenyl)phenyl]carbonyl}piperazin-1-yl)carbonyl]cyclopropan-1-ol] |
| < 500 | < 0.5 |  |  | O=C(c1ccc(-c2cc3ccccn3n2)cc1)N1CCN(C(=O)C2(O)CC2)CC1 |
| < 500 | < 0.5 |  |  | O=C(c1ccc(-c2n[nH]c3ccccc23)cc1)N1CCN(C(=O)C2(O)CC2)CC1 [1-[(4-{[4-(1H-indazol-3-yl)phenyl]carbonyl}piperazin-1-yl)carbonyl]cyclopropan-1-ol] |
| < 500 | < 0.5 |  |  | O=C(c1ccc(-c2cccc3[nH]ccc23)cc1)N1CCN(C(=O)C2(O)CC2)CC1 [1-[(4-{[4-(1H-indol-4-yl)phenyl]carbonyl}piperazin-1-yl)carbonyl]cyclopropan-1-ol] |
| < 500 | < 0.5 |  |  | O=C(c1ccc(-c2cccc(NS(=O)(=O)C3CC3)c2)cc1)N1CCN(C(=O)C2(O)CC2)CC1 [N-{3-[4-({4-[(1-hydroxycyclopropyl)carbonyl]piperazin-1-yl}carbonyl)phenyl]phenyl}cyclopropanesulfonamide] |
| < 500 | < 0.5 |  |  | O=C(c1ccc(-c2nc3ccccc3o2)cc1)N1CCN(C(=O)C2(O)CC2)CC1 [1-[(4-{[4-(1,3-benzoxazol-2-yl)phenyl]carbonyl}piperazin-1-yl)carbonyl]cyclopropan-1-ol] |
|  | < 0.5 |  | 500 to 5000 | O=C(c1ccc(-c2nc3ccccc3[nH]2)cc1)N1CCN(C(=O)C2(O)CC2)CC1 |
| < 500 | < 0.5 |  |  | O=C(c1ccc(-c2cn3ccccc3n2)cc1)N1CCN(C(=O)C2(O)CC2)CC1 |
| < 500 | < 0.5 |  |  | O=C(c1ccc(-c2ccc3[nH]cnc3c2)cc1)N1CCN(C(=O)C2(O)CC2)CC1 [1-[(4-{[4-(1H-1,3-benzodiazol-5-yl)phenyl]carbonyl}piperazin-1-yl)carbonyl]cyclopropan-1-ol] |
| < 500 | < 0.5 |  |  | O=C(c1ccc(-c2ccc3scnc3c2)cc1)N1CCN(C(=O)C2(O)CC2)CC1 [1-[(4-{[4-(1,3-benzothiazol-5-yl)phenyl]carbonyl}piperazin-1-yl)carbonyl]cyclopropan-1-ol] |
| < 500 | < 0.5 |  |  | O=C(c1ccc(-c2cnc3ccccc3c2)cc1)N1CCN(C(=O)C2(O)CCC2)CC1 [1-[(4-{[4-(quinolin-3-yl)phenyl]carbonyl}piperazin-1-yl)carbonyl]cyclobutan-1-ol] |
| < 500 | < 0.5 |  |  | COc1ccc2nc(-c3ccc(C(=O)N4CCN(C(=O)C5(O)CC5)CC4)cc3)ccc2c1 [1-[(4-{[4-(6-methoxyquinolin-2-yl)phenyl]carbonyl}piperazin-1-yl)carbonyl]cyclopropan-1-ol] |
| < 500 | < 0.5 |  |  | COc1ccc2nc(-c3ccc(C(=O)N4CCN(C(=O)C5(O)CC5)CC4)cc3)cc(C)c2c1 [1-[(4-{[4-(6-methoxy-4-methylquinolin-2-yl)phenyl]carbonyl}piperazin-1-yl)carbonyl]cyclopropan-1-ol] |
| < 500 | < 0.5 |  |  | O=C(c1ccc(-c2nccc3ccccc23)cc1)N1CCN(C(=O)C2(O)CC2)CC1 [1-[(4-{[4-(isoquinolin-1-yl)phenyl]carbonyl}piperazin-1-yl)carbonyl]cyclopropan-1-ol] |
| < 500 | < 0.5 |  |  | O=C(c1ccc(-c2ccc3ocnc3c2)cc1)N1CCN(C(=O)C2(O)CC2)CC1 [1-[(4-{[4-(1,3-benzoxazol-5-yl)phenyl]carbonyl}piperazin-1-yl)carbonyl]cyclopropan-1-ol] |
| < 500 | < 0.5 |  |  | O=C(c1ccc(-c2ccc3nccn3n2)cc1)N1CCN(C(=O)C2(O)CC2)CC1 [1-({4-[(4-{imidazo[1,2-b]pyridazin-6-yl}phenyl)carbonyl]piperazin-1-yl}carbonyl)cyclopropan-1-ol] |
| < 500 | < 0.5 |  |  | CC(C)S(=O)(=O)Nc1cccc(-c2ccc(C(=O)N3CCN(C(=O)C4(O)CC4)CC3)cc2)c1 |
